According to US20250351832A1, “PHYTOCHEMICALS AS BIOPESTICIDES AND BIOSTIMULANTS” (KAY BEE BIO ORGANICS PVT. LTD., priority 2024, published 2025):
Like-named read-outs stand apart in the source and are kept apart here.

Experiments:
Tomato thrips = assay: In vitro bio-efficacy, Tomato thrips (Ex. 57); conditions: Dose 0.17 ml/lit
Alternaria alternata [1] = assay: In vitro poisoned food technique against fungus (Ex. 20); format: cell-based; conditions: poisoned food technique, PDA medium, dose 1 ml/gm/lit., after seven days
Alternaria alternata [2] = assay: Alternaria leaf spot/blight on inoculated tomato plants (Ex. 28); format: in vivo; conditions: tomato plants, Alternaria alternata; after 7 days; dose 1 ml/gm/lit
tomato seedlings = assay: Response of tomato plants, greenhouse growth (Ex. 30); format: in vivo; conditions: tomato seedlings, dose 1 ml/gm/lit
chili seedlings = assay: Response of chili plants, greenhouse growth (Ex. 31); format: in vivo; conditions: chili seedlings, dose 1 ml/gm/lit
Aphid [3] = test system: Aphid
Mite [4] = test system: Mite
Mealy Bug [5] = conditions: Mealy Bug on cotton leaves, dose 1 ml/gm/lit., 48 Hrs.
Helicoverpa armigera [6] = conditions: Helicoverpa armigera on okra fruits, dose 1 ml/gm/lit., 72 Hrs.
Spodoptera litura [7] = conditions: Spodoptera litura on castor leaves; dose 1 ml/gm/lit.; 10 insects/treatment; 72 hrs after application
Thrips [8] = conditions: Thrips on cotton leaves; dose 1 ml/gm/lit.; 10 insects/treatment; 48 hrs after application
Aphid [9] = conditions: Aphids on cotton plants, green house; dose 1 ml/gm/lit.; 10 insects/plant, 10 plants/treatment; 48 hrs
Mite [10] = conditions: mite on okra plants, green house, dose 1 ml/gm/lit. spray
Mealy Bug [11] = conditions: mealy bug on cotton plants, green house, dose 1 ml/gm/lit. spray
Helicoverpa armigera [12] = conditions: Helicoverpa armigera 3rd instar on chickpea plants, dose 1 ml/gm/lit. spray
Spodoptera litura [13] = conditions: Spodoptera litura 3rd instar on cabbage plants, dose 1 ml/gm/lit. spray
Thrips [14] = conditions: thrips on cotton plants, greenhouse, dose 1 ml/gm/lit. spray
[15] = cited from earlier work
Spodoptera litura [16] = assay: whole plant or invertebrate; conditions: 72 h
Thrips [17] = assay: whole plant or invertebrate; conditions: in Gossypium hirsutum, 48 h
Aphid [18] = assay: whole plant or invertebrate; conditions: 48 h
[19] = 10 insects/treatment, 4 replications
[20] = 48 hrs, corrected for water control
[21] = 72 hrs, corrected for water control
[22] = Table 13, descriptive, no test described
[23] = read-out: % Corrected Mortality at 48 Hrs.
[24] = read-out: % Mortality at 48 Hrs.

With `CN(C(=O)c1ccccc1)c1cccc(C(=O)Nc2c(Br)cc(C(F)(C(F)(F)F)C(F)(F)F)cc2C(F)(F)F)c1F` [Brofranilide] the “% Corrected Mortality at 72 hrs.” value (Tomato thrips) was 47.37%, the “% Mortality at 72 hrs.” value (Tomato thrips) was 50.0% and the “Total no of dead insects at 72 hrs.” value (Tomato thrips) was 20.0.
In the case of `Cc1ccc(C(C)C)c(O)c1` [Thymol], the “Mean colony Diameter (mm)” value (Alternaria alternata [1]) is reported as 51.50 mm, the inhibition of growth at 1 mL or g/L (Alternaria alternata [1]; vs untreated control, read-out: % Inhibition of growth) is reported as 41.5% and the “% Disease reduction over Control” value (Alternaria alternata [2]) is reported as 61.16%. The “Plant Height 5th Day” value (tomato seedlings; 5th day after application) was 6.81 cm, the “Stem Girth 5th Day” value (tomato seedlings; 5th day after application) was 1.90 mm and the “Plant Height 10th Day” value (tomato seedlings; 10th day after application) was 7.62 cm. For the same compound, the “Stem Girth 10th Day” value (tomato seedlings; 10th day after application) was 2.53 mm, the “Plant Height % Increase over pre on 10th Day” value (tomato seedlings; 10th day) was 30.48% and the “Stem Girth % Increase over pre on 10th Day” value (tomato seedlings; 10th day) was 61.42%. For the same compound, the “CCI 5th Day” value (tomato seedlings; 5th day after application) was 14.12, the “CCI % Increase over pre on 10th Day” value (tomato seedlings; 10th day) was 22.87% and the “Root Length (cm) 10th Day” value (tomato seedlings; 10th day) was 4.82 cm. The “CCI 10th Day” value (tomato seedlings; 10th day after application) was 15.42, the “Root Length % Increase over control” value (tomato seedlings; 10th day, vs water control) was 44.89% and the “CCI 5th Day” value (chili seedlings; 5th day after application) was 13.80. For the same compound, the “Plant Height (cm) 5th Day” value (chili seedlings; 5th day after application) was 6.13 cm, the “CCI % Increase over pre on 10th Day” value (chili seedlings; 10th day) was 75.74% and the “Plant Height % Increase over pre on 10th Day” value (chili seedlings; 10th day) was 58.04%. The “Root Lenght (cm) 10th Day” value (chili seedlings; 10th day) was 3.77 cm, the “Stem Girth % Increase over pre on 10th Day” value (chili seedlings; 10th day) was 51.36% and the “CCI 10th Day” value (chili seedlings; 10th day after application) was 14.85. For the same compound, the “Plant Height (cm) 10th Day” value (chili seedlings; 10th day after application) was 7.27 cm, the “Root Lenght % Increase over control” value (chili seedlings; 10th day, vs water control) was 37.87% and the “Total No. of dead insect at 48 Hrs.” value (Aphid [3]; Dose 1 ml/gm/lit., 10 insects/treatment, 4 replications, cotton leaves) was 6.25. The “% Corrected Mortality at 48 Hrs.” value (Aphid [3]; in vivo) was 57.14%, the “Total No. of dead insect at 48 Hrs.” value (Mite [4]; Dose 1 ml/gm/lit., 10 insects/treatment, 4 replications, okra leaves) was 6.00 and the “% Corrected Mortality at 48 Hrs.” value (Mite [4]; in vivo) was 56.76%. For the same compound, the “% Mortality at 48 Hrs.” value (Mite [4]; in vivo) was 60.00%, the “Total No. of dead insect at 48 Hrs.” value (Mealy Bug [5]; [19]) was 5.50 and the “% Mortality at 48 Hrs.” value (Mealy Bug [5]) was 55.00%. For the same compound, the “% Corrected Mortality at 48 Hrs.” value (Mealy Bug [5]; corrected for water control) was 52.63%, the “Total No. of dead insect at 72 Hrs.” value (Helicoverpa armigera [6]; [19]) was 6.50 and the “% Mortality at 72 Hrs.” value (Helicoverpa armigera [6]) was 65.00%. The “% Corrected Mortality at 72 Hrs.” value (Helicoverpa armigera [6]; corrected for water control) was 65.00%, the “Total No. of dead insect at 72 Hrs.” value (Spodoptera litura [7]) was 6.75 and the “Total No. of dead insect at 48 Hrs.” value (Thrips [8]) was 3.25. The “Total No. of dead insect at 48 Hrs.” value (Aphid [9]) was 62.50, the “% Mortality at 48 Hrs.” value (Mite [10]; 48 hrs after application) was 62.50% and the “Total No. of dead insect at 48 Hrs.” value (Mite [10]; 48 hrs after application) was 62.50. For the same compound, the “% Corrected Mortality at 48 Hrs.” value (Mite [10]; [20]) was 60.53%, the “% Mortality at 48 Hrs.” value (Mealy Bug [11]; 48 hrs after application) was 55.00% and the “Total No. of dead insect at 48 Hrs.” value (Mealy Bug [11]; 48 hrs after application) was 55.00. The “% Corrected Mortality at 48 Hrs.” value (Mealy Bug [11]; [20]) was 50.00%, the “% Mortality at 72 Hrs.” value (Helicoverpa armigera [12]; 72 hrs after application) was 62.50% and the “% Corrected Mortality at 72 Hrs.” value (Helicoverpa armigera [12]; [21]) was 62.50%. The “% Mortality at 72 Hrs.” value (Spodoptera litura [13]; 72 hrs after application) was 65.00%, the “% Corrected Mortality at 72 Hrs.” value (Spodoptera litura [13]; [21]) was 63.16% and the “% Mortality at 48 Hrs.” value (Thrips [14]; 48 hrs after application) was 35.00%. The “Total No. of dead insect at 48 Hrs.” value (Thrips [14]; 48 hrs after application) was 35.00, the “% Corrected Mortality at 48 Hrs.” value (Thrips [14]; [20]) was 27.78% and the “Antioxidant Activity - Mode of action” value [15, 22] was “Antioxidant and food”. For the same compound, the “Bactericidal Activity - Mode of action” value [15, 22] was “Growth inhibition”, the “Insecticidal Activities - Mode of action” value [15, 22] was “Inhibited the growth,” and the “Virucidal Activity - Mode of action” value [15, 22] was “Inhibit virus replication”. The “Phytotonic Effect” value ([15]; Table 13, effect on plants, descriptive) was “Improves”, the mortality at 1 mL or g/L (Spodoptera litura [16]; read-out: % Corrected Mortality at 72 Hrs.) was 65.8% and the mortality at 1 mL or g/L (Spodoptera litura [16]; read-out: % Mortality at 72 Hrs.) was 67.5%. It also gave a mortality at 1 mL or g/L (Thrips [17]; [23]) of 22.9%, a mortality at 1 mL or g/L (Thrips [17]; [24]) of 32.5% and a mortality at 1 mL or g/L (Aphid [18]; [23]) of 55.9%. The mortality at 1 mL or g/L (Aphid [18]; [24]) was 62.5%.
